Data on one molecule can be found in article PMC6429262, “Design and Synthesis of Novel Anti-Proliferative Emodin Derivatives and Studies on their Cell Cycle Arrest, Apoptosis Pathway and Migration” (Molecules, 2019).

By IC50 is commonly meant the concentration that inhibits the measured activity by half.

Assay [1] deals with MCF-7 cells. Nature of the assay: CellTiter-Glo Luminescent Cell Viability Assay, MCF-7. In kind it is cell-based, human. On the procedure: (§1) The in vitro anti-proliferative activities of all the novel synthesized compounds were evaluated against HepG2 cells and MCF-7 cells by CellTiter-Glo® Luminescent Cell Viability Assay, using paclitaxel (a clinically used drug) as a positive control. Emodin (1) and compound 2 were also included for comparison.
(§2) HepG2 cells and MCF-7 cells were purchased from American Type Culture Collection (ATCC, Manassas, VA, USA). Cells were cultured in T75 flask (430641, Corning, New York, NY, USA), supplemented with high-glucose DMEM medium (Dulbecco’s modified Eagle’s medium, 11965-092, Gibco, New York, NY, USA) containing 10% Fetal bovine serum (FBS) and 1% penicillin (100 units/mL)-streptomycin (100 µg/mL) in a humidified incubator at 37 °C under 5% CO2 and 95% relative humidity (RH) atmosphere. The cells were harvested for metabolomics experiments using cell scrapers.
(§3) HepG2 cells and MCF-7 cells in 40 µL DMEM supplemented with 10% FBS were seeded at a density of 500 cells/well in 384-well cell culture plate (3570, Corning), respectively. After 24 h, the medium was substituted with fresh medium containing various sample solutions in DMSO (0.5%, v/v) at a dose range of 0.14–100 µM with 3-fold serial dilutions, and cells were cultured for another 48 h. Cells were cultured in medium without samples but 0.5% DMSO served as a control. All measurements were determined in triplicate for each treatment. After the sample treatment for 48 h, 20 µL CellTiter-Glo (G7573, Promega, Fitchburg, WI, USA) was added to each well containing cells and the contents were mixed for 2 min on an orbital shaker to induce cell lysis. The plates were then incubated at room temperature for 20 min to stabilize the luminescent signal. The luminescence was recorded on an Envision 2014 (Perkin Elmer, Waltham, MA, UAS). The IC50 values represented the samples’ concentrations required to inhibit 50% of cell proliferation and were calculated from a calibration curve by linear regression using GraphPad Prism 7.0 software (GraphPad Software, San Diego, CA, USA).
For orientation: Cellular ATP, detected with luciferase, serves as a proxy for viable cell number.

In assay [2] the test system is L02 cells. Briefly: Cytotoxic activity against human normal liver cells (L02). In kind it is cell-based. Particulars: Homo sapiens, L02, human normal liver L02 cells.
Assay [3] concerns HepG2 cells. Briefly: CellTiter-Glo Luminescent Cell Viability Assay, HepG2. The assay is classed as cell-based, human. On the procedure:
as §1, §2, §3

In the case of `Cc1cc(O)c2c(c1)C(=O)c1cc(O)cc(O)c1C2=O` [Emodin, 3-methyl-1,6,8-trihydroxyanthraquinone], the IC50 in assay [1] (Homo sapiens, MCF7, 48 h, MCF-7 cells, 48 h, mean of three independent experiments) is 52.7 ± 2.22 µM; in assay [2] it was 22.52 ± 0.18 µM; in assay [3] (Homo sapiens, HepG2, 48 h, HepG2 cells, 48 h, mean of three independent experiments), 43.9 ± 1.28 µM. Also, the “Selectivity Index MCF-7” value in assay [1] (IC50 on normal cells (L02)/IC50 on cancer cells (MCF-7)) is given as 0.43. Also, the “Selectivity Index HepG2” value in assay [3] (IC50 on normal cells (L02)/IC50 on cancer cells (HepG2)) came to 0.51.
